Source: ChEMBL document CHEMBL6121052, “Design of ROS-Triggered Sesquiterpene Lactone SC Prodrugs as TrxR1 Covalent Inhibitors for the Treatment of Non-Small Cell Lung Cancer” (J Med Chem, 2025)

Key:
NCI-H460 = test: Cytotoxicity against human NCI-H460 cells assessed as cell viability incubated for 48 hrs by MTT assay; format: functional, cell-based; conditions: NCI-H460, 48 h
A549 = test: Cytotoxicity against human A549 cells assessed as cell viability incubated for 48 hrs by MTT assay; format: functional, cell-based; conditions: A549, 48 h

Work on `C/C1=C\[C@@H](OC(=O)c2ccccc2)[C@H]2[C@H](CC3=C[C@H](C1)OC3=O)OC(=O)[C@@H]2CSc1ccc(SC[C@H]2C(=O)O[C@H]3CC4=C[C@H](C/C(C)=C/[C@@H](OC(=O)c5ccccc5)[C@@H]32)OC4=O)cc1` yielded an IC50 (NCI-H460) of over 25 µM and an IC50 (A549) of over 25 µM.
`C/C1=C\[C@@H](OC(=O)C2CC2)[C@H]2[C@H](CC3=C[C@H](C1)OC3=O)OC(=O)[C@@H]2CSC(=S)NC(C)C` was tested, and the IC50 (NCI-H460) was over 25 µM and the IC50 (A549) was 1.94 µM.
With `C/C1=C\[C@@H](OC(=O)c2ccccc2)[C@H]2[C@H](CC3=C[C@H](C1)OC3=O)OC(=O)[C@@H]2CSCCCCCCCCCCSC[C@H]1C(=O)O[C@H]2CC3=C[C@H](C/C(C)=C/[C@@H](OC(=O)c4ccccc4)[C@@H]21)OC3=O` the IC50 (NCI-H460) was over 25 µM and the IC50 (A549) was over 25 µM.
For `C/C1=C\[C@@H](OC(=O)c2ccccc2)[C@H]2[C@H](CC3=C[C@H](C1)OC3=O)OC(=O)[C@@H]2CSCC(C)C`, the IC50 (NCI-H460) was over 25 µM and the IC50 (A549) was over 25 µM.
Compound `C/C1=C\[C@@H](OC(=O)c2ccccc2)[C@H]2[C@H](CC3=C[C@H](C1)OC3=O)OC(=O)[C@@H]2CSCCOCCOCCSC[C@H]1C(=O)O[C@H]2CC3=C[C@H](C/C(C)=C/[C@@H](OC(=O)c4ccccc4)[C@@H]21)OC3=O` has an IC50 (NCI-H460) of over 25 µM and an IC50 (A549) of over 25 µM.
With `C/C1=C\[C@@H](OC(=O)C2CC2)[C@H]2[C@H](CC3=C[C@H](C1)OC3=O)OC(=O)[C@@H]2CSCC(C)C` the IC50 (NCI-H460) was over 25 µM and the IC50 (A549) was over 25 µM.
For `C/C1=C\[C@@H](OC(=O)C2CC2)[C@H]2[C@H](CC3=C[C@H](C1)OC3=O)OC(=O)[C@@H]2CSc1ccc(Cl)cc1`, the IC50 (NCI-H460) was over 25 µM and the IC50 (A549) was 6.03 µM.
`CCCCCSC[C@H]1C(=O)O[C@H]2CC3=C[C@H](C/C(C)=C/[C@@H](OC(=O)C4CC4)[C@@H]21)OC3=O` showed an IC50 (NCI-H460) of over 25 µM and an IC50 (A549) of over 25 µM.
`C/C1=C\[C@@H](O)[C@H]2[C@H](CC3=C[C@H](C1)OC3=O)OC(=O)[C@@H]2CSc1nc2ccccc2s1` showed an IC50 (NCI-H460) of over 25 µM and an IC50 (A549) of over 25 µM.
`C/C1=C\[C@@H](OC(=O)c2ccccc2)[C@H]2[C@H](CC3=C[C@H](C1)OC3=O)OC(=O)[C@@H]2CSc1ccc([N+](=O)[O-])cc1` was tested, and the IC50 (NCI-H460) was over 25 µM and the IC50 (A549) was 2.59 µM.
`C/C1=C\[C@@H](OC(=O)/C=C/c2ccccc2)[C@H]2[C@H](CC3=C[C@H](C1)OC3=O)OC(=O)[C@@H]2CSc1ccc(Br)cc1` was tested, and the IC50 (NCI-H460) was over 25 µM and the IC50 (A549) was 11.8 µM.
`COc1ccc(SC[C@H]2C(=O)O[C@H]3CC4=C[C@H](C/C(C)=C/[C@@H](OC(=O)/C=C/c5ccccc5)[C@@H]32)OC4=O)cc1` gave an IC50 (NCI-H460) of over 25 µM and an IC50 (A549) of 14 µM.
With `C/C1=C\[C@@H](OC(=O)C2CC2)[C@H]2[C@H](CC3=C[C@H](C1)OC3=O)OC(=O)[C@@H]2CSc1ccc(SC[C@H]2C(=O)O[C@H]3CC4=C[C@H](C/C(C)=C/[C@@H](OC(=O)C5CC5)[C@@H]32)OC4=O)cc1` the IC50 (NCI-H460) was over 25 µM and the IC50 (A549) was 1.15 µM.
For `C/C1=C\[C@@H](O)[C@H]2[C@H](CC3=C[C@H](C1)OC3=O)OC(=O)[C@@H]2CSCC(C)C`, the IC50 (NCI-H460) was over 25 µM and the IC50 (A549) was over 25 µM.
For `C/C1=C\[C@@H](OC(=O)c2ccccc2)[C@H]2[C@H](CC3=C[C@H](C1)OC3=O)OC(=O)[C@@H]2CSc1cccc(F)c1`, the IC50 (NCI-H460) was over 25 µM and the IC50 (A549) was 6.17 µM.
`C/C1=C\[C@@H](OC(=O)/C=C/c2ccccc2)[C@H]2[C@H](CC3=C[C@H](C1)OC3=O)OC(=O)[C@@H]2CSCCCCCCCCCCSC[C@H]1C(=O)O[C@H]2CC3=C[C@H](C/C(C)=C/[C@@H](OC(=O)/C=C/c4ccccc4)[C@@H]21)OC3=O` showed an IC50 (NCI-H460) of over 25 µM and an IC50 (A549) of over 25 µM.
For `COc1ccc(SC[C@H]2C(=O)O[C@H]3CC4=C[C@H](C/C(C)=C/[C@@H](OC(=O)C5CC5)[C@@H]32)OC4=O)cc1`, the IC50 (NCI-H460) was over 25 µM and the IC50 (A549) was 6.81 µM.
For `CCCCCSC[C@H]1C(=O)O[C@H]2CC3=C[C@H](C/C(C)=C/[C@@H](O)[C@@H]21)OC3=O`, the IC50 (NCI-H460) was over 25 µM and the IC50 (A549) was over 25 µM.
`C/C1=C\[C@@H](OC(=O)C2CC2)[C@H]2[C@H](CC3=C[C@H](C1)OC3=O)OC(=O)[C@@H]2CSc1ccc([N+](=O)[O-])cc1` gave an IC50 (NCI-H460) of over 25 µM and an IC50 (A549) of 5.12 µM.
Compound `C/C1=C\[C@@H](O)[C@H]2[C@H](CC3=C[C@H](C1)OC3=O)OC(=O)[C@@H]2CSCCCCCCCCCCSC[C@H]1C(=O)O[C@H]2CC3=C[C@H](C/C(C)=C/[C@@H](O)[C@@H]21)OC3=O` has an IC50 (NCI-H460) of over 25 µM and an IC50 (A549) of over 25 µM.
`C/C1=C\[C@@H](OC(=O)/C=C/c2ccccc2)[C@H]2[C@H](CC3=C[C@H](C1)OC3=O)OC(=O)[C@@H]2CSCC(C)C` showed an IC50 (NCI-H460) of over 25 µM and an IC50 (A549) of over 25 µM.
For `C/C1=C\[C@@H](OC(=O)C2CC2)[C@H]2[C@H](CC3=C[C@H](C1)OC3=O)OC(=O)[C@@H]2CSc1cccc(Br)c1`, the IC50 (NCI-H460) was over 25 µM and the IC50 (A549) was 5.77 µM.
Work on `C/C1=C\[C@@H](OC(=O)C2CC2)[C@H]2[C@H](CC3=C[C@H](C1)OC3=O)OC(=O)[C@@H]2CSC(=S)NCc1cccnc1` yielded an IC50 (NCI-H460) of 15.3 µM and an IC50 (A549) of 1.41 µM.
`COc1ccc(SC[C@H]2C(=O)O[C@H]3CC4=C[C@H](C/C(C)=C/[C@@H](OC(=O)c5ccccc5)[C@@H]32)OC4=O)cc1` was tested, and the IC50 (NCI-H460) was over 25 µM and the IC50 (A549) was 9.67 µM.
`CCCCCSC[C@H]1C(=O)O[C@H]2CC3=C[C@H](C/C(C)=C/[C@@H](OC(=O)/C=C/c4ccccc4)[C@@H]21)OC3=O` was tested, and the IC50 (NCI-H460) was over 25 µM and the IC50 (A549) was over 25 µM.
`C/C1=C\[C@@H](OC(=O)c2ccccc2)[C@H]2[C@H](CC3=C[C@H](C1)OC3=O)OC(=O)[C@@H]2CSCCCCCSC[C@H]1C(=O)O[C@H]2CC3=C[C@H](C/C(C)=C/[C@@H](OC(=O)c4ccccc4)[C@@H]21)OC3=O` gave an IC50 (NCI-H460) of over 25 µM and an IC50 (A549) of over 25 µM.
`C/C1=C\[C@@H](OC(=O)c2ccccc2)[C@H]2[C@H](CC3=C[C@H](C1)OC3=O)OC(=O)[C@@H]2CSCCCCCCSC[C@H]1C(=O)O[C@H]2CC3=C[C@H](C/C(C)=C/[C@@H](OC(=O)c4ccccc4)[C@@H]21)OC3=O` showed an IC50 (NCI-H460) of over 25 µM and an IC50 (A549) of over 25 µM.
`C/C1=C\[C@@H](OC(=O)C2CC2)[C@H]2[C@H](CC3=C[C@H](C1)OC3=O)OC(=O)[C@@H]2CSC1CCCCC1` gave an IC50 (NCI-H460) of over 25 µM and an IC50 (A549) of over 25 µM.
`C/C1=C\[C@@H](OC(=O)C2CC2)[C@H]2[C@H](CC3=C[C@H](C1)OC3=O)OC(=O)[C@@H]2CSCCOCCOCCSC[C@H]1C(=O)O[C@H]2CC3=C[C@H](C/C(C)=C/[C@@H](OC(=O)C4CC4)[C@@H]21)OC3=O` gave an IC50 (NCI-H460) of over 25 µM and an IC50 (A549) of 13.2 µM.
With `C/C1=C\[C@@H](O)[C@H]2[C@H](CC3=C[C@H](C1)OC3=O)OC(=O)[C@@H]2CSC1CCCCC1` the IC50 (NCI-H460) was over 25 µM and the IC50 (A549) was over 25 µM.
`C/C1=C\[C@@H](OC(=O)C2CC2)[C@H]2[C@H](CC3=C[C@H](C1)OC3=O)OC(=O)[C@@H]2CSCc1ccc(Cl)cc1` was tested, and the IC50 (NCI-H460) was over 25 µM and the IC50 (A549) was over 25 µM.
`CCCNC(=S)SC[C@H]1C(=O)O[C@H]2CC3=C[C@H](C/C(C)=C/[C@@H](OC(=O)C4CC4)[C@@H]21)OC3=O` showed an IC50 (NCI-H460) of 24.9 µM and an IC50 (A549) of 2.85 µM.
`C/C1=C\[C@@H](OC(=O)/C=C/c2ccccc2)[C@H]2[C@H](CC3=C[C@H](C1)OC3=O)OC(=O)[C@@H]2CSc1cccc(Br)c1` was tested, and the IC50 (NCI-H460) was over 25 µM and the IC50 (A549) was 8.61 µM.
`C/C1=C\[C@@H](OC(=O)/C=C/c2ccccc2)[C@H]2[C@H](CC3=C[C@H](C1)OC3=O)OC(=O)[C@@H]2CSc1ccc(SC[C@H]2C(=O)O[C@H]3CC4=C[C@H](C/C(C)=C/[C@@H](OC(=O)/C=C/c5ccccc5)[C@@H]32)OC4=O)cc1` gave an IC50 (NCI-H460) of over 25 µM and an IC50 (A549) of over 25 µM.
For `C/C1=C\[C@@H](OC(=O)C2CC2)[C@H]2[C@H](CC3=C[C@H](C1)OC3=O)OC(=O)[C@@H]2CSCCCCCCSC[C@H]1C(=O)O[C@H]2CC3=C[C@H](C/C(C)=C/[C@@H](OC(=O)C4CC4)[C@@H]21)OC3=O`, the IC50 (NCI-H460) was over 25 µM and the IC50 (A549) was over 25 µM.
`C/C1=C\[C@@H](OC(=O)c2ccccc2)[C@H]2[C@H](CC3=C[C@H](C1)OC3=O)OC(=O)[C@@H]2CSC1CCCCC1` gave an IC50 (NCI-H460) of over 25 µM and an IC50 (A549) of over 25 µM.
In the case of `C/C1=C\[C@@H](OC(=O)/C=C/c2ccccc2)[C@H]2[C@H](CC3=C[C@H](C1)OC3=O)OC(=O)[C@@H]2CSCCOCCOCCSC[C@H]1C(=O)O[C@H]2CC3=C[C@H](C/C(C)=C/[C@@H](OC(=O)/C=C/c4ccccc4)[C@@H]21)OC3=O`, the IC50 (NCI-H460) is reported as over 25 µM and the IC50 (A549) is reported as over 25 µM.
Work on `C/C1=C\[C@@H](O)[C@H]2[C@H](CC3=C[C@H](C1)OC3=O)OC(=O)[C@@H]2CSc1ccc(F)cc1` yielded an IC50 (NCI-H460) of over 25 µM and an IC50 (A549) of over 25 µM.
`C/C1=C\[C@@H](OC(=O)C2CC2)[C@H]2[C@H](CC3=C[C@H](C1)OC3=O)OC(=O)[C@@H]2CSc1nc2ccccc2s1` was tested, and the IC50 (NCI-H460) was over 25 µM and the IC50 (A549) was 17.2 µM.
`C/C1=C\[C@@H](OC(=O)C2CC2)[C@H]2[C@H](CC3=C[C@H](C1)OC3=O)OC(=O)[C@@H]2CSC(=S)NC1CCCC1` gave an IC50 (NCI-H460) of over 25 µM and an IC50 (A549) of 2.63 µM.
With `C/C1=C\[C@@H](OC(=O)c2ccccc2)[C@H]2[C@H](CC3=C[C@H](C1)OC3=O)OC(=O)[C@@H]2CSc1ccc(C(F)(F)F)cc1` the IC50 (NCI-H460) was 24.4 µM and the IC50 (A549) was 3.74 µM.
In the case of `C/C1=C\[C@@H](OC(=O)/C=C/c2ccccc2)[C@H]2[C@H](CC3=C[C@H](C1)OC3=O)OC(=O)[C@@H]2CSCc1ccc(Cl)cc1`, the IC50 (NCI-H460) is reported as over 25 µM and the IC50 (A549) is reported as over 25 µM.
`C/C1=C\[C@@H](OC(=O)c2ccccc2)[C@H]2[C@H](CC3=C[C@H](C1)OC3=O)OC(=O)[C@@H]2CSCCCCCCCCSC[C@H]1C(=O)O[C@H]2CC3=C[C@H](C/C(C)=C/[C@@H](OC(=O)c4ccccc4)[C@@H]21)OC3=O` showed an IC50 (NCI-H460) of over 25 µM and an IC50 (A549) of over 25 µM.
With `C/C1=C\[C@@H](OC(=O)c2ccccc2)[C@H]2[C@H](CC3=C[C@H](C1)OC3=O)OC(=O)[C@@H]2CSc1cccc(Br)c1` the IC50 (NCI-H460) was over 25 µM and the IC50 (A549) was 3.66 µM.
